Data on one molecule can be found in US4177269A, “Novel 17-esters of 17α-hydroxy gestogens, compositions containing such compounds, processes for their preparation and methods of treatment therewith” (Aktiebolaget Leo, priority 1976, dated 1979).

The subject of data set [1] is Ehrlich ascites tumour, ELD hyperdiploid. Description: Ehrlich ascites tumour, ELD hyperdiploid (46 chromosomes), growth inhibition in mice. Type of data set: in vivo, SPF NMRI mice. As to conditions: one i.p. injection, result in words. The method in brief: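 SPF NMRI mice implanted i.p. with 2 × 10^6 ELD hyperdiploid Ehrlich ascites cells, given one i.p. injection the day after implantation. Animals killed on day 8; tumour weights compared with controls.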

The subject of data set [2] is Walker carcinosarcoma 256. The data set is described as follows: Walker carcinosarcoma 256 tumour growth inhibition in rats. As to conditions: daily p.o. for 5 days, dose causing 50 percent reduction of tumour size, killed 9th day. Type of data set: in vivo, Sprague-Dawley rats. Also noted: ED50: unit: mg/kg. An excerpt: (§1) LD50 is the dose that causes a 50 percent lethality of the animals, and ED50 is the dose that causes a 50 percent reduction of tumour size.
(§2) The experimental design and the interpretation of the results are in accordance with the standards set by the CCNSC (Cancer Chemotherpy Reports, January 1959 and December 1962).
(§3) Walker carcinosarcoma 256.
(§4) Experimental animals: Sprague-Dawley rats.
(§5) Tumour implant: Tumour pieces with 2-4 mm diameter, sub-
(§6) Therapy: Daily p.o. administration for 5 days starting on
(§7) the day following implantation.
(§8) Termination: The animals are killed on the 9th day.
(§9) Evaluation: Weights of tumours of test animals are compared
(§10) with those of control animals.

Assay in data set [3]: as above
It counts as in vivo, Sprague-Dawley rats. Also noted: ED50: unit: mg/kg. To be noted: rat, in vivo, po, daily p.o. for 5 days.
From the text: as §1, §2, §3, §4, §5, §6, §7, §8, §9, §10

Data set [4] is described as follows: Hepatome AH 130 tumour growth inhibition in rats. Details: ED50: unit not given here. To be noted: rat, in vivo, ip, one i.p. injection. It counts as in vivo, Sprague-Dawley rats. The method in brief: (§11)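 Sprague-Dawley rats implanted i.p. with 5 × 10^6 tumour cells, given a single i.p. injection the day after implantation, and killed on day 8. Tumour weights compared with controls; ED50 is the dose halving tumour size, LD50 the dose lethal to 50% of animals.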

The next data set has as its system Hepatome AH 130. Description: Hepatome AH 130 tumour growth inhibition in rats. To be noted: one i.p. injection, dose causing 50 percent reduction of tumour size, killed 8th day. Details: ED50: unit not given here. It counts as in vivo, Sprague-Dawley rats. The method in brief:
as §11

The target in data set [5] is T1, rabbit uterus cytosol progesterone receptor (Oryctolagus cuniculus, UniProt P06186).
T1 construct: One ml portions of the supernatant (rabbit uterus cytosol) were pipetted into small centrifuge tubes of glass; from tissue; host or cells: uterus cytosol (105,000×g supernatant) of female rabbits pretreated with polyestradiol phosphate
T1 sequence (P06186 1-930): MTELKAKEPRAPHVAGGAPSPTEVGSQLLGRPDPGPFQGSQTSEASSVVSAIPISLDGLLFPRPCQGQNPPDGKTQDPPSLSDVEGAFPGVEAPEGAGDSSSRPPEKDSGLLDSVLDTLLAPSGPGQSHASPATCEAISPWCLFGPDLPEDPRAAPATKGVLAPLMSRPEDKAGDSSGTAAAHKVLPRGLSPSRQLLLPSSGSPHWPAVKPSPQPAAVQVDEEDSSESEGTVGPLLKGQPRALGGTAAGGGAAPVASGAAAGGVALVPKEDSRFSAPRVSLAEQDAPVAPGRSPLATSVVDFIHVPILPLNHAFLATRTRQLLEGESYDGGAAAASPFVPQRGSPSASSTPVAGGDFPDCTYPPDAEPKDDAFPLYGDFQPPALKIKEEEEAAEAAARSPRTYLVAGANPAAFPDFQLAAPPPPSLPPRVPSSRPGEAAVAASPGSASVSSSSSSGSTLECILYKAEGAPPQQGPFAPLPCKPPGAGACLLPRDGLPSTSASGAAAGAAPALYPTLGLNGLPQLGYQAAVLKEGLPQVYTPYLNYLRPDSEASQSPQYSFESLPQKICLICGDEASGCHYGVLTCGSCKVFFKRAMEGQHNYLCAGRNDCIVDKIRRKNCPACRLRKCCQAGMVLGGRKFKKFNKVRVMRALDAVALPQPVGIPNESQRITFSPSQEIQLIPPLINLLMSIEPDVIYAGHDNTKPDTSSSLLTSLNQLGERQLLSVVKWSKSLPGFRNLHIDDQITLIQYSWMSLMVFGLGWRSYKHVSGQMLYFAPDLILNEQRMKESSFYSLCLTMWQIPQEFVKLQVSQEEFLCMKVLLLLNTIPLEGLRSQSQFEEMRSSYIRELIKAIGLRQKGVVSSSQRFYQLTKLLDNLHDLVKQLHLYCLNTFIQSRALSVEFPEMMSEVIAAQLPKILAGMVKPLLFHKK
The data set is described as follows: Relative affinity to rabbit uterus cytosol progesterone receptor (3H-progesterone competition). It counts as binding. To be noted: compared to progesterone; 50% competition with 3H-progesterone; 16-18 hours at 4° C. The method, then: This example illustrates the compound's relative affinity to rabbit uterus cytosol progesterone receptor compared with progesterone. The method used for this purpose is a modification of methods already described by Kontula, K. et al. (Acta Endocrinol. 78 (1975) 574) and Terenius, L. (Steroids 23 (1974) 909) among others.
Female rabbits (3-4 pounds) from Knut Larsen, Uddevalla, Sweden, were injected i.m. with 1 mg Estradurin (polyestradiol phosphate, 1 mg/ml saline, AB Leo, Sweden). After one week, the animals were killed and the uteri were immediately removed, chilled and cut free from connective tissues. All the following operations were performed at 0°-4° C. The uteri were cut into small pieces and washed several times with 3 vol. of buffer at pH 7.4 containing 50 MM TRIS-HCl, 1.5 mM EDTA, 3 mM NaN3, 2 mM dithiothreitol, and 25% glycerol (by vol.). The tissue was homogenized in the same buffer (3 vol.) with four 15-s bursts at rheostat setting 36-37 of an Ultra Turrax (Janke and Kunkel KG, Staufen, The Federal Republic of Germany). The homogenate was centifuged in a Sorvall GLC-2 centrifuge for 15 min at 600×g. The supernatanate was recentrifuged at 105,000×g for 60 min in a Beckman ultracentrifuge model LB-65-B with rotor SW 56.
One ml portions of the supernatant (rabbit uterus cytosol) were pipetted into small centrifuge tubes of glass and were kept at -70° C. until used. The protein content was determined by the method of Lowry (J. Biol. Chem. 193 (1951) 265).
10.0 mg of each compound was dissolved in 10.0 ml 99.5% ethanol. 100 μl of this standard solution was diluted to 5.0 ml ethanol/glycerol 1:1 (v/v). The ethanol was evaporated by blowing air at 40° C. on the solution. The volume was then adjusted to 5.0 ml by adding buffer without glycerol.
The compounds were diluted with glycerol/buffer 1:1 to final concentrations between 10^-8 -10^-5 M in total 300 μl incubation media. 100 μl of each compound and of each dilution were incubated in small centrifuge tubes (2 ml) together with 100 μl (10 pg) ^3 H-progesterone (1,2,6,7-3H-progesterone, 47.8 Ci/mMol, The Radiochemical Centre, Amersham, England) and 100 μl cytosol adjusted with buffer to a final concentration of about […]. The incubations were carried out for 16-18 hours at 4° C.
The separation of bound from free radioactivity was carried out at 0° C. using the dextran coated charcoal technique (DCC). To each incubation tube was added 0.5 ml DCC-suspension (0.05% dextran-70, Pharmacia, Uppsala, Sweden and 0.5% Norit A, Sigma, Saint Louis, Missouri, U.S.A.) The tubes were agitated 2-3 times during 10 minutes whereupon they were centrifuged at 100×g for five minutes. The supernatantes were decanted directly into Scintillation vials (polyethene, Packard) containing 10 ml InstaGel (Packard). The radioactivity was counted in a Philip's liquid scintillation spectrometer Model PW 4510/00 with external standard and automatic quenching correction.
To incubation tubes were added 100 μl cytosol, 100 μl ^3 H-progesterone (10 pg) and 100 μl of different dilutions of non-radioactive progesterone in glycerol/buffer 1:1 ranging from 0-10^4 pg/100 μl. The tubes were incubated parallel with the compounds described above. The radioactivity was calculated by substracting the counted radioactivity in the incubation tubes with the radioactivity counted in incubations tubes in which the cytosol was replaced with buffer (100 μl).
The concentration of non-radioactive progesterone [P]i which competes for 50% of bound radioactive progesterone was calculated from the standard curve constructed [B] i/[B] o=0.5 where [B]i is the bound radioactivity at different concentrations of non-radioactive progesterone and [B]o is the bound radioactivity at progesterone concentration zero.
In the same manner, curves were constructed for each compound X and the concentration for each compound which competes for 50% with bound ^3 H-progesterone ([X]50) was calculated. […]

What is called LD50 is the dose at which mortality reaches 50%. As for `CC(=O)[C@@]1(OC(=O)CCCOC(=O)CCCc2ccc(N(CCCl)CCCl)cc2)CC[C@H]2[C@@H]3CCC4=CC(=O)CC[C@]4(C)[C@H]3CC[C@@]21C` [Compound 3:3], in data set [1], the antitumour activity entry is on record as “exhibit antitumour activity”. The values for the ED50 (in data set [2]; in the data set with Hepatome AH 130) were 2 and 6, respectively. Besides, the LD50 in data set [3] (dose causing 50 percent lethality) is 40 mg/kg; in data set [4] (dose causing 50 percent lethality, column head not given) it was 180 mg/kg. Further, the figures for the selectivity ratio in data set [3] (read-out: T.I. (LD50/ED50)) and in data set [4] (read-out: T.I. (LD50/ED50)) were 20 and 30, respectively. For the same molecule, in data set [5], the “relative binding affinity (RBA)” value is 0.6%.
